What is called IC50 is the midpoint of a concentration-inhibition curve.

Experimental findings from US11648254B2 (Kumquat Biosciences Inc., priority 2021, dated 2023) are described below.

The nature of data set [1]: In vitro plasma protein binding (PPB). In kind it is in vitro ADME. The note with it: percentage of free/unbound compound.
For the next data set, the target named is SOS1 (Homo sapiens (Human), UniProt Q07889). The data set can be described thus: Ras-SOS interaction assay (HTRF). It counts as biochemical. In general terms: In TR-FRET formats the signal depends on donor and acceptor labels being close together.
Chain of SOS1 (Q07889 564-1049): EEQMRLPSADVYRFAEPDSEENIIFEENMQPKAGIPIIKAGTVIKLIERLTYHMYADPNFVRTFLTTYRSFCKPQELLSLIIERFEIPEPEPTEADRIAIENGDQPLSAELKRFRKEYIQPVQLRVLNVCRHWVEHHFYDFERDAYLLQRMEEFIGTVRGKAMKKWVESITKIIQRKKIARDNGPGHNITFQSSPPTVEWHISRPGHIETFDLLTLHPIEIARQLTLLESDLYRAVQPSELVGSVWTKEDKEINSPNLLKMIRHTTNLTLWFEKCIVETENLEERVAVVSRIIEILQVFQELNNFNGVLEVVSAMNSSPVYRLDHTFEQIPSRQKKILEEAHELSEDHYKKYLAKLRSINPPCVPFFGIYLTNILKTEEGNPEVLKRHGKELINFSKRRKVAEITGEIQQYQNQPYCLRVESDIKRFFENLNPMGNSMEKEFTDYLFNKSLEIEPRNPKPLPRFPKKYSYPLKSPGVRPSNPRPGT
For data set [2], the system named is MIA PaCa-2 cells (K-Ras G12C). Briefly: Ras-SOS cellular growth inhibition assay (CellTiter-Glo, 3D). It counts as cell-based. In a few lines:
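Growth read by CellTiter-Glo luminescence about 5 days after dosing with 3-fold dilutions (9 points), added one day post-seeding. Cells: MIA PaCa-2, 3D culture on ultra-low-attachment surface, medium DMEM/Ham's F12 plus 10% FCS and 2.5% horse serum; IC50 by four-parameter fit.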

Data set [3] relates to NCI-H1975 cells (EGFR T790M L858R). The data set can be described thus: EGFR-SOS cellular inhibition assay (CellTiter-Glo, 3D). It counts as cell-based. (In general: In ATP-based viability assays light output follows the ATP content of the culture.)
Setting [4] is: K-RasG13D utilized, read-out: IC50 inhibition of SOS.
Where [5] appears, read: K-RasG13D, read-out: IC50 value against SOS1.
[6] abbreviates: Homo sapiens, MIA PaCa-2, 120 h, MIA PaCa-2, 3D proliferation, about 5 days, read-out: Bio-Cell-Prolif-3D (MiaPaca2 IC50).
Setting [7] is: Homo sapiens, 120 h, NCI-H1975, 3D proliferation, about 5 days, read-out: Bio-Cell-Prolif-3D (H1975 IC50).
Setting [8] is: Homo sapiens, NCI-H1975, EGFR T790M L858R, read-out: IC50 in inhibiting growth of NCI-H1975 cell line.
The mark [9] stands for this setting: Homo sapiens, MIA PaCa-2, MIA PaCa-2, read-out: IC50 in inhibiting MIA PaCa-2 cell growth.

Each structure is given as a SMILES string. Where two headings read alike, the source gives them in different places.

`COc1nc2ncnc(N[C@H](C)c3cccc(C(F)F)c3F)c2cc1N1CCS(=O)(=O)CC1` [Compound 339, (R)-4-(4-((1-(3-(difluoromethyl)-2-fluorophenyl)ethyl)amino)-7-methoxypyrido[2,3-d]pyrimidin-6-yl)thiomorpholine 1,1-dioxide]: in data set [1], the “DMPK-invitro-PPB (Mouse Unbound) [%]” value stood at 15.32%. Also, the half-inhibitory concentration (IC50) at SOS1 (setting [4]) is below 100 nM; at SOS1 (setting [5]), below 50 nM; in data set [2] (setting [6]), at most 1000 nM; in data set [3] (setting [7]), at most 1000 nM; in data set [3] (setting [8]), below 500 nM.

Consider `COc1nc2nc(C)nc(N[C@H](C)c3cccc(C(F)(F)F)c3C)c2cc1N1CCN(C2CCOCC2)CC1` [Compound 378, (R)-7-methoxy-2-methyl-N-(1-(2-methyl-3-(trifluoromethyl)phenyl)ethyl)-6-(4-(tetrahydro-2H-pyran-4-yl)piperazin-1-yl)pyrido[2,3-d]pyrimidin-4-amine], for which the “DMPK-invitro-PPB (Mouse Unbound) [%]” value in data set [1] turned out to be 0.14%. Besides, the IC50 at SOS1 (setting [4]) is below 100 nM; at SOS1 (setting [5]), below 50 nM; in data set [2] (setting [6]), at most 1000 nM; in data set [2] (setting [9]) it was below 500 nM; in data set [3] (setting [7]) it was at most 1000 nM; in data set [3] (setting [8]) it was below 500 nM.

`COc1nc2ncnc(N[C@H](C)c3cccc(C(F)F)c3F)c2cc1C1CCS(=O)(=O)CC1` [Compound 146, (R)-4-(4-((1-(3-(difluoromethyl)-2-fluorophenyl)ethyl)amino)-7-methoxypyrido[2,3-d]pyrimidin-6-yl)tetrahydro-2H-thiopyran 1,1-dioxide]: the “DMPK-invitro-PPB (Mouse Unbound) [%]” value in data set [1] came out at 3.58%. The IC50 is below 100 nM at SOS1 (setting [4]); below 50 nM at SOS1 (setting [5]); below 500 nM in data set [2] (setting [9]); at most 1000 nM in data set [2] (MIA PaCa-2, 3D proliferation, about 5 days, read-out: Bio-Cell-Prolif-3D (MiaPaca2 IC50)); at most 1000 nM in data set [3] (NCI-H1975, 3D proliferation, about 5 days, read-out: Bio-Cell-Prolif-3D (H1975 IC50)); below 500 nM in data set [3] (NCI-H1975, EGFR T790M L858R, read-out: IC50 in inhibiting growth of NCI-H1975 cell line).

`COc1nc2ncnc(N[C@H](C)c3cccc(C(F)(F)C(C)(C)O)c3F)c2cc1N1CCN(C(C)C)CC1` [Compound 273, (R)-1,1-difluoro-1-(2-fluoro-3-(1-((6-(4-isopropylpiperazin-1-yl)-7-methoxypyrido[2,3-d]pyrimidin-4-yl)amino)ethyl)phenyl)-2-methylpropan-2-ol]: the “DMPK-invitro-PPB (Mouse Unbound) [%]” value in data set [1] turned out to be 12.22%. Moreover, the IC50 was below 100 nM on SOS1 (setting [4]); below 50 nM at SOS1 (setting [5]); at most 1000 nM in data set [2] (setting [6]); below 500 nM in data set [2] (setting [9]); at most 1000 nM in data set [3] (setting [7]); below 500 nM in data set [3] (setting [8]).

Consider `COc1nc2ncnc(N[C@H](C)c3cccc(C(F)(F)F)c3C)c2cc1N1CCN(C2CCOCC2)CC1` [Compound 160, (R)-7-methoxy-N-(1-(2-methyl-3-(trifluoromethyl)phenyl)ethyl)-6-(4-(tetrahydro-2H-pyran-4-yl)piperazin-1-yl)pyrido[2,3-d]pyrimidin-4-amine], for which the “DMPK-invitro-PPB (Mouse Unbound) [%]” value in data set [1] is 1.05%. The IC50 on SOS1 (setting [4]) was below 100 nM; at SOS1 (setting [5]), below 50 nM; in data set [2] (setting [6]), at most 1000 nM; in data set [3] (setting [7]), at most 1000 nM; in data set [3] (setting [8]), below 500 nM.

In the case of `COc1nc2nc(C)nc(N[C@H](C)c3cccc(C(F)(F)F)c3C)c2cc1N1CCN(C(C)C)CC1` [Compound 171, (R)-6-(4-isopropylpiperazin-1-yl)-7-methoxy-2-methyl-N-(1-(2-methyl-3-(trifluoromethyl)phenyl)ethyl)pyrido[2,3-d]pyrimidin-4-amine], the “DMPK-invitro-PPB (Mouse Unbound) [%]” value in data set [1] was determined as 0.12%. The IC50 on SOS1 (setting [4]) was below 100 nM; at SOS1 (setting [5]), below 50 nM; in data set [2] (setting [6]), at most 1000 nM; in data set [3] (setting [7]) it was at most 1000 nM; in data set [3] (setting [8]), below 500 nM.

As for `CCN1CCC(c2cc3c(N[C@H](C)c4cccc(C(F)(F)F)c4C)nc(C)nc3nc2OC)CC1` [Compound 351, (R)-6-(1-ethylpiperidin-4-yl)-7-methoxy-2-methyl-N-(1-(2-methyl-3-(trifluoromethyl)phenyl)ethyl)pyrido [2,3-d]pyrimidin-4-amine], the “DMPK-invitro-PPB (Mouse Unbound) [%]” value in data set [1] is 0.22%. Further, the IC50 was below 100 nM at SOS1 (setting [4]); below 50 nM on SOS1 (setting [5]); at most 1000 nM in data set [2] (setting [6]); below 500 nM in data set [2] (setting [9]); at most 1000 nM in data set [3] (setting [7]); below 500 nM in data set [3] (setting [8]).

In the case of `COc1nc2nc(C)nc(N[C@H](C)c3cccc(C(F)(F)F)c3F)c2cc1C1CCN(C2CCOCC2)CC1` [Compound 344, (R)-N-(1-(2-fluoro-3-(trifluoromethyl)phenyl)ethyl)-7-methoxy-2-methyl-6-(1-(tetrahydro-2H-pyran-4-yl)piperidin-4-yl)pyrido[2,3-d]pyrimidin-4-amine], the “DMPK-invitro-PPB (Mouse Unbound) [%]” value in data set [1] amounted to 0.29%. For the same molecule, the IC50 was below 100 nM at SOS1 (setting [4]) and below 50 nM at SOS1 (setting [5]).

Take `COc1nc2nc(C)nc(N[C@H](C)c3cccc(C(F)F)c3F)c2cc1C1CCS(=O)(=O)CC1` [Compound 102, (R)-4-(4-((1-(3-(difluoromethyl)-2-fluorophenyl)ethyl)amino)-7-methoxy-2-methylpyrido[2,3-d]pyrimidin-6-yl)tetrahydro-2H-thiopyran 1,1-dioxide]: the “DMPK-invitro-PPB (Mouse Unbound) [%]” value in data set [1] was 2.56%. In addition, the 50% inhibitory concentration (IC50) at SOS1 (setting [4]) is below 100 nM; at SOS1 (setting [5]), below 50 nM; in data set [2] (setting [6]), at most 1000 nM; in data set [2] (setting [9]) it was below 500 nM; in data set [3] (setting [7]), at most 1000 nM; in data set [3] (setting [8]) it was below 500 nM.

With `COc1nc2ncnc(N[C@H](C)c3cccc(C(F)(F)F)c3F)c2cc1C1CCS(=O)(=O)CC1` [Compound 375, (R)-4-(4-((1-(2-fluoro-3-(trifluoromethyl)phenyl)ethyl)amino)-7-methoxypyrido[2,3-d]pyrimidin-6-yl)tetrahydro-2H-thiopyran 1,1-dioxide], the “DMPK-invitro-PPB (Mouse Unbound) [%]” value in data set [1] is given as 2.67%. The IC50 at SOS1 (setting [4]) is below 100 nM; at SOS1 (setting [5]), below 50 nM; in data set [2] (setting [6]), at most 1000 nM; in data set [2] (setting [9]), below 500 nM; in data set [3] (setting [7]), at most 1000 nM; in data set [3] (setting [8]), below 500 nM.

As for `COc1nc2nc(C)nc(N[C@H](C)c3cccc(C(F)F)c3F)c2cc1N1CCN(C)CC1` [Compound 103, (R)—N-(1-(3-(difluoromethyl)-2-fluorophenyl)ethyl)-7-methoxy-2-methyl-6-(4-methylpiperazin-1-yl)pyrido[2,3-d]pyrimidin-4-amine], in data set [1], the “DMPK-invitro-PPB (Mouse Unbound) [%]” value is given as 5.15%. The half-maximal inhibitory concentration (IC50) was below 100 nM at SOS1 (setting [4]) and below 500 nM in data set [3] (setting [8]).

Turning to `COc1nc2nc(C)nc(N[C@H](C)c3cccc(C(F)(F)F)c3C)c2cc1C1CCN(C2CCOCC2)CC1` [Compound 358, (R)-7-methoxy-2-methyl-N-(1-(2-methyl-3-(trifluoromethyl)phenyl)ethyl)-6-(1-(tetrahydro-2H-pyran-4-yl)piperidin-4-yl)pyrido [2,3-d]pyrimidin-4-amine], the “DMPK-invitro-PPB (Mouse Unbound) [%]” value in data set [1] was 0.065%. For the same molecule, the IC50 on SOS1 (setting [4]) was below 100 nM; on SOS1 (setting [5]) it was below 50 nM.

In the case of `Cc1nc(N[C@H](C)c2cccc(C(F)(F)C(C)(C)O)c2F)c2cc(C3(C#N)CC3)c(N3CCN(C(C)C)CC3)nc2n1` [Compound 244, (R)-1-(4-((1-(3-(1,1-difluoro-2-hydroxy-2-methylpropyl)-2-fluorophenyl)ethyl)amino)-7-(4-isopropylpiperazin-1-yl)-2-methylpyrido[2,3-d]pyrimidin-6-yl)cyclopropane-1-carbonitrile], the IC50 at SOS1 (setting [4]) is below 100 nM; at SOS1 (setting [5]) it was below 50 nM; in data set [2] (setting [6]), at most 1000 nM; in data set [2] (setting [9]), below 500 nM; in data set [3] (setting [7]) it was at most 1000 nM; in data set [3] (setting [8]), below 500 nM.

`Cc1nc(N[C@H](C)c2cccc(C(F)(F)F)c2F)c2cc(C3CCS(=O)(=O)CC3)c(OC3COC3)nc2n1` [Compound 247, (R)-4-(4-((1-(2-fluoro-3-(trifluoromethyl)phenyl)ethyl)amino)-2-methyl-7-(oxetan-3-yloxy)pyrido[2,3-d]pyrimidin-6-yl)tetrahydro-2H-thiopyran 1,1-dioxide]: the IC50 at SOS1 (setting [4]) is below 100 nM; on SOS1 (setting [5]), below 50 nM; in data set [2] (setting [6]), at most 1000 nM; in data set [2] (setting [9]), below 500 nM; in data set [3] (setting [7]), at most 1000 nM; in data set [3] (setting [8]), below 500 nM.

On to `Cc1nc(N[C@H](C)c2cccc(C(F)(F)C3CCN(C(C)C)CC3)c2)c2cc(C3CCN(C(C)C)CC3)c(Cl)nc2n1` [Compound 269, (R)-7-chloro-N-(1-(3-(difluoro(1-isopropylpiperidin-4-yl)methyl)phenyl)ethyl)-6-(1-isopropylpiperidin-4-yl)-2-methylpyrido[2,3-d] pyrimidin-4-amine], for which the IC50 at SOS1 (setting [4]) was below 100 nM; on SOS1 (setting [5]) it was below 50 nM; in data set [2] (setting [6]) it was at most 1000 nM; in data set [2] (setting [9]) it was below 500 nM; in data set [3] (setting [7]), at most 1000 nM; in data set [3] (setting [8]), below 500 nM.

`CCN1CCN(c2cc3c(N[C@H](C)c4cccc(C(F)(F)F)c4C)ncnc3nc2OC)CC1` [Compound 198, (R)-6-(4-ethylpiperazin-1-yl)-7-methoxy-N-(1-(2-methyl-3-(trifluoromethyl)phenyl)ethyl)pyrido[2,3-d]pyrimidin-4-amine]: the IC50 on SOS1 (setting [4]) was below 100 nM; on SOS1 (setting [5]), below 50 nM; in data set [2] (setting [6]) it was at most 1000 nM; in data set [2] (setting [9]), below 500 nM; in data set [3] (setting [7]), at most 1000 nM; in data set [3] (setting [8]) it was below 500 nM.
